Laboratory results published in patent US7041690B2, “Inhibitors of HCV NS5B polymerase” (Pharmacia & Upjohn Company, LLC, priority 2002, dated 2006).
Like-named read-outs stand apart in the source and are kept apart here.

Molecular target: HCV NS5b RNA dependent RNA polymerase (Hepatitis C virus genotype 1a, UniProt P27958)
Assay: HCV NS5b RNA dependent RNA polymerase inhibition (scintillation proximity assay)
Assay type: biochemical
Method: Compounds of the present invention are evaluated for inhibition of HCV NS5b RNA dependent RNA polymerase activity in assays comprised of a suitable buffer (e.g. 20 mM Tris-HCl pH 7.6), primed or unprimed RNA templates, GTP, ATP, CTP, and UTP, MnCl2 or MgCl2, and reducing agent such as 10 mM dithiothreitol or 2-mercaptoethanol. The assay buffer may contain salts such as ammonium acetate, KCl, or NaCl, and nonionic or zwitterionic detergents such as Tween or CHAPS. The incorporation of nucleotides into the complementary RNA strand may be monitored by the incorporation of radiolabeled NTP (e.g. ^3H labeled GTP). Suitable RNA templates for de novo initiation in the presence of 20–50 μM GTP or ATP are the homopolymers poly rC and poly rU, respectively. Heteropolymer RNA templates with 1–3 cytidine (C) bases or 1–3 uridine (U) bases at the 3′ terminus of the template may also be used for de novo initiation. Primed RNA templates such as poly rC primed with oligo rG or oligo dG, and poly rA primed with oligo rU may also be used to detect polymerase activity. The primers may be any length greater than 10 bases. A biotin residue may be added to the 5′ end of the template or the 5′ end of the primer to capture the template and the newly synthesized, complementary strand on avidin coated spheres. One embodiment of this technology consists of a mixture of NS5b polymerase, a poly rC RNA template primed with 5′ biotinylated oligo rG, 20 mM Tris HCl pH 7.6, 100 mM ammonium acetate, 10 mM dithiothreitol, 2 mM CHAPS, 1 mM MgCl2, and 150–200 nM ^3H labeled GTP. Test compounds (inhibitors) may be incorporated in the reaction mixture with up to 10% DMSO. The reaction is run for various times (1–180 minutes) at 22–37° C., and stopped by the addition of 10–140 mM EDTA. Scintillation Proximity Assay avidin-coated beads (Amersham Pharmacia Biotech) are added to capture the ds RNA product; or the reaction mixtures may be transferred to avidin coated Flash Plates (Perkin Elmer Life Sciences). The incorporation of radiolabeled GTP into the complementary strand is measured in 96, 384, or 1536 well plates in scintillation counters such as the Wallac Microbeta and Packard TopCount.

[1] = concentration for 50% inhibition, class symbols, read-out: NS5B Inhibitory Activity

Chain of HCV NS5b RNA dependent RNA polymerase (P27958 2421-3011): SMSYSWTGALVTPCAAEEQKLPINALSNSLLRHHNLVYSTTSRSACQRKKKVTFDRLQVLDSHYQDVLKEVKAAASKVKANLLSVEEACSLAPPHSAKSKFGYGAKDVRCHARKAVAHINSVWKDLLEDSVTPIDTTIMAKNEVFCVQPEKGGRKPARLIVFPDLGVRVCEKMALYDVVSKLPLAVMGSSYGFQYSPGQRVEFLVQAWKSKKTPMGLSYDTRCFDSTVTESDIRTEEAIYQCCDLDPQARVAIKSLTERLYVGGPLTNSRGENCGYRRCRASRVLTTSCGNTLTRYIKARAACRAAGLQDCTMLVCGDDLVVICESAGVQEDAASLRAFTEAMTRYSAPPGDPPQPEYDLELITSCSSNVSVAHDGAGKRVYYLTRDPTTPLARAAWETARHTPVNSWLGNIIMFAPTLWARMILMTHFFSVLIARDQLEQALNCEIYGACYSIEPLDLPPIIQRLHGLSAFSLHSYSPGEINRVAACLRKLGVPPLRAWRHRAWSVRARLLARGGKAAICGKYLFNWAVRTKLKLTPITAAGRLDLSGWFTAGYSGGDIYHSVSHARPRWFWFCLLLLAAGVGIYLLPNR

Row | SMILES | IC50 [1] | IC50
1 | O=C(O)/C(=C/c1cccc(Oc2ccccc2Cl)c1)NC(=O)c1ccccc1 [Compound 1] | < 10 µM | –
2 | Cc1ccc(COc2ccc(/C=C(\NC(=O)c3ccccc3)C(=O)O)cc2)cc1 [Compound 3] | 11 to 30 µM | –
3 | O=C(O)/C(=C/c1ccc(F)c(-c2ccccc2Cl)c1)NC(=O)c1ccccc1 [Compound 8] | < 10 µM | –
4 | CCS(=O)(=O)c1ccc(-c2ccc(/C=C(\NC(=O)c3ccccc3)C(=O)O)o2)cc1 [Compound 7] | > 30 µM | –
5 | O=C(O)/C(=C/c1cnc(-c2ccccc2Cl)[nH]1)NC(=O)c1ccccc1 [Compound 12] | > 30 µM | –
6 | O=C(O)/C(=C/c1csc(-c2ccccc2Cl)n1)NC(=O)c1ccccc1 [Compound 9] | < 10 µM | –
7 | O=C(O)/C(=C/c1ccc(Oc2ccccc2Br)cc1)NC(=O)c1ccccc1 [Compound 13] | < 10 µM | –
8 | O=C(O)/C(=C/c1ccc(-c2ccc3c(c2)OCO3)o1)NC(=O)c1ccccc1 [Compound 4] | < 10 µM | –
9 | O=C(O)/C(=C/c1ncc(-c2ccccc2)o1)NC(=O)c1ccccc1 [Compound 10] | < 10 µM | –
10 | O=C(O)/C(=C/c1cccc(-c2cccnc2)c1)NC(=O)c1ccccc1 [Compound 11] | > 30 µM | –
11 | O=C(O)/C(=C/c1ccc(Nc2ccccc2Cl)cc1)NC(=O)c1ccccc1 [Compound 6] | 11 to 30 µM | –
12 | O=C(O)/C(=C/c1ccc(-c2cc3ccccc3s2)o1)NC(=O)c1ccccc1 [Compound 5] | 11 to 30 µM | –
13 | Cc1ccccc1-c1ccc(/C=C(\NC(=O)c2ccccc2)C(=O)O)o1 [Compound 2] | – | < 10 µM
